As a reminder, the melting point is the temperature of the solid-liquid transition. As to `CN(C)CCCCOc1ccc(N(C)S(=O)(=O)c2ccc(C(F)(F)F)cc2)cc1` [Example 14.1, N-[4-(4-Dimethylamino-butoxy)-phenyl]-N-methyl-4-trifluoromethyl-benzenesulfonamide], the melting point fell in the range of 151 to 153 °C.

The record behind these values is US6683201B2, “Analine derivatives as OSC inhibitors” (Hoffmann-La Roche Inc., priority 2000, dated 2004).
